Results reported in the supplement of paper PMC6045584.
± gives the standard deviation of the averaged measurements.

Assays:
[1] = compound: CCc1cc(Nc2nccc(-c3c(-c4ccc(OC)c(C(=O)Nc5c(F)cccc5F)c4)nc4ccccn34)n2)c(OC)cc1N1CCC(N2CCN(S(C)(=O)=O)CC2)CC1; test: surviving fraction relative to DMSO-only wells; higher = less growth inhibition; conditions: exposure time: 5 days
Method in brief: (§1)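 Inhibitors were tested at 0.5, 1, 5, 10, 50, 100, 500 and 1000 nM, applied continuously for five days beginning 24 hours after log-phase tumour cells were seeded at 250–500 per well in 384-well plates. CellTiter-Glo luminescence served as the viability measure, expressed as surviving fraction against the median of DMSO-only wells. Each line, screened three times, was kept only with replicate Pearson r >0.7 and median Z' >0.3.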

[2] = compound: Cc1cn(-c2cc(NC(=O)c3ccc(C)c(Nc4nccc(-c5cccnc5)n4)c3)cc(C(F)(F)F)c2)cn1 [NILOTINIB]; test: as above; conditions: exposure time: 5 days
Method in brief: as §1

Test System	surviving fraction ([1]; 0.5 nM)	surviving fraction ([1]; 1 nM)	surviving fraction ([1]; 5 nM)	surviving fraction ([1]; 10 nM)	surviving fraction ([1]; 50 nM)	surviving fraction ([1]; 100 nM)	surviving fraction ([1]; 500 nM)	surviving fraction ([1]; 1000 nM)	surviving fraction ([2]; 0.5 nM)	surviving fraction ([2]; 1 nM)	surviving fraction ([2]; 5 nM)	surviving fraction ([2]; 10 nM)	surviving fraction ([2]; 50 nM)	surviving fraction ([2]; 100 nM)	surviving fraction ([2]; 500 nM)	surviving fraction ([2]; 1000 nM)
SG27 HEADNECK	1.04 ± 0.066	0.999 ± 0.11	1.06 ± 0.065	1.13 ± 0.057	1.05 ± 0.065	1.17 ± 0.19	1.2 ± 0.034	1.15 ± 0.071	1.13 ± 0.03	1.09 ± 0.087	1.02 ± 0.066	1.06 ± 0.063	1.11 ± 0.21	1.04 ± 0.056	1.17 ± 0.091	1.23 ± 0.051
SG28 HEADNECK	1.01 ± 0.085	1.09 ± 0.099	1.04 ± 0.099	1.07 ± 0.082	1.1 ± 0.1	1.04 ± 0.041	1.22 ± 0.07	1.21 ± 0.061	1.07 ± 0.044	1.05 ± 0.025	1.07 ± 0.062	1.07 ± 0.042	0.782 ± 0.042	0.907 ± 0.068	0.84 ± 0.013	0.903 ± 0.067
SG31 HEADNECK	0.923 ± 0.036	1.08 ± 0.23	1.04 ± 0.2	0.903 ± 0.099	1.04 ± 0.14	1.14 ± 0.2	1.08 ± 0.26	1.1 ± 0.086	1.24 ± 0.13	1.2 ± 0.13	1.08 ± 0.11	1.24 ± 0.21	1.14 ± 0.081	1.26 ± 0.17	1.02 ± 0.15	1.16 ± 0.13
SG32 HEADNECK	1.07 ± 0.22	1.11 ± 0.026	1.15 ± 0.089	1.17 ± 0.15	1.15 ± 0.23	1.21 ± 0.1	1.6 ± 0.59	1.15 ± 0.017	0.984 ± 0.025	0.986 ± 0.062	1.16 ± 0.12	1.24 ± 0.26	0.823 ± 0.21	0.864 ± 0.16	0.866 ± 0.039	0.834 ± 0.12
SG43 HEADNECK	1.18 ± 0.18	1.1 ± 0.26	0.948 ± 0.15	0.985 ± 0.15	1.13 ± 0.046	0.908 ± 0.12	1.38 ± 0.024	1.25 ± 0.3	1.19 ± 0.17	1.12 ± 0.25	1.05 ± 0.13	1.05 ± 0.055	1.66 ± 0.17	1.76 ± 0.32	1.93 ± 0.23	1.98 ± 0.2
SIHA CERVIX	1.01 ± 0.019	1.04 ± 0.071	1.06 ± 0.055	1.11 ± 0.046	1.05 ± 0.084	1.18 ± 0.053	1.02 ± 0.037	1.09 ± 0.034	1.03 ± 0.029	1.02 ± 0.029	1 ± 0.024	1.11 ± 0.04	1.09 ± 0.036	1.061 ± 0.0087	1.05 ± 0.055	1.03 ± 0.037
SJSA1 BONE	1.03 ± 0.038	0.99 ± 0.056	1.08 ± 0.066	1.1 ± 0.065	1.07 ± 0.013	1.09 ± 0.024	1.03 ± 0.056	1.03 ± 0.013	1.73 ± 0.13	1.67 ± 0.1	1.65 ± 0.08	1.802 ± 0.014	1.56 ± 0.1	1.69 ± 0.04	1.63 ± 0.074	1.77 ± 0.044
SKBR3 BREAST	1.04 ± 0.12	1.06 ± 0.18	1.05 ± 0.057	0.99 ± 0.089	0.983 ± 0.13	1.01 ± 0.099	0.849 ± 0.082	0.664 ± 0.048	1.01 ± 0.13	1.02 ± 0.074	1 ± 0.037	0.994 ± 0.13	0.731 ± 0.097	0.826 ± 0.18	0.744 ± 0.061	0.775 ± 0.076
SNU475 LIVER	0.88 ± 0.066	0.966 ± 0.042	0.982 ± 0.024	0.976 ± 0.062	0.982 ± 0.025	0.956 ± 0.023	0.957 ± 0.054	0.875 ± 0.061	1.05 ± 0.028	1 ± 0.036	1.01 ± 0.031	1.04 ± 0.017	0.941 ± 0.026	0.939 ± 0.03	0.953 ± 0.024	0.858 ± 0.076
SUM44 BREAST	1.07 ± 0.041	1.04 ± 0.015	1.06 ± 0.037	1.07 ± 0.023	1.07 ± 0.062	1.155 ± 0.0075	0.9687 ± 0.0055	0.994 ± 0.034	1.03 ± 0.19	1.04 ± 0.21	1.08 ± 0.23	1.07 ± 0.15	0.958 ± 0.012	0.934 ± 0.059	0.943 ± 0.064	0.932 ± 0.083
SUM149 BREAST	1.07 ± 0.059	1.14 ± 0.027	1.09 ± 0.035	1.12 ± 0.037	1.06 ± 0.14	1.11 ± 0.13	1.08 ± 0.081	1.05 ± 0.12	0.884 ± 0.092	0.895 ± 0.024	0.971 ± 0.057	0.833 ± 0.072	0.898 ± 0.053	0.786 ± 0.061	0.872 ± 0.071	0.833 ± 0.053
SUM149.B1*.S BREAST	0.994 ± 0.024	1.05 ± 0.033	1.05 ± 0.051	1.1 ± 0.02	1.01 ± 0.047	1.081 ± 0.01	1.05 ± 0.082	1.04 ± 0.048	1.09 ± 0.026	1.08 ± 0.051	1.163 ± 0.0038	1.12 ± 0.031	1.1 ± 0.046	1.13 ± 0.018	1.18 ± 0.035	1.11 ± 0.036
SUM159 BREAST	1.1 ± 0.27	1.17 ± 0.28	1.15 ± 0.24	1.14 ± 0.2	1.11 ± 0.21	1.12 ± 0.19	1.07 ± 0.14	1.08 ± 0.18	1.1 ± 0.039	1.1 ± 0.021	1.11 ± 0.021	1.09 ± 0.032	1.06 ± 0.023	1.077 ± 0.0068	1.055 ± 0.0095	1.06 ± 0.016
SYO1 SYNOVIAL	0.945 ± 0.041	0.992 ± 0.031	0.948 ± 0.048	0.945 ± 0.045	0.969 ± 0.034	1.02 ± 0.044	0.949 ± 0.03	0.895 ± 0.022	0.9541 ± 0.0069	0.979 ± 0.064	0.97 ± 0.062	0.974 ± 0.036	0.936 ± 0.036	0.976 ± 0.056	0.805 ± 0.062	0.743 ± 0.032
T47D BREAST	1.06 ± 0.042	1.04 ± 0.027	1.05 ± 0.031	1.07 ± 0.016	1.06 ± 0.056	1.14 ± 0.051	1.03 ± 0.036	0.997 ± 0.014	1.02 ± 0.041	1.065 ± 0.0097	1.07 ± 0.025	1.04 ± 0.045	1.07 ± 0.051	1.06 ± 0.026	1.05 ± 0.041	1.08 ± 0.038
U2OS BONE	0.992 ± 0.02	1 ± 0.017	1.06 ± 0.025	1.031 ± 0.0015	1.06 ± 0.023	1.06 ± 0.035	1.01 ± 0.013	0.975 ± 0.019	1.03 ± 0.032	1.02 ± 0.037	1.11 ± 0.032	1.11 ± 0.06	1.07 ± 0.059	1.13 ± 0.088	1.11 ± 0.095	1.09 ± 0.095
VCAP PROSTATE	1.02 ± 0.1	1.05 ± 0.072	0.986 ± 0.12	1.07 ± 0.042	0.984 ± 0.091	1.05 ± 0.03	1.03 ± 0.055	0.9673 ± 0.0061	0.999 ± 0.1	1.03 ± 0.088	1.16 ± 0.13	1.06 ± 0.076	1.02 ± 0.075	0.966 ± 0.073	0.952 ± 0.14	0.862 ± 0.067
VP229 BREAST	1.13 ± 0.059	1.08 ± 0.033	1.24 ± 0.11	1.17 ± 0.063	1.09 ± 0.13	1.09 ± 0.052	1.18 ± 0.17	0.875 ± 0.12	1.24 ± 0.14	1.12 ± 0.11	1.04 ± 0.075	1.18 ± 0.24	1.05 ± 0.041	1.08 ± 0.094	1.28 ± 0.04	1.12 ± 0.059
YAMATO SYNOVIAL	1.32 ± 0.085	1.34 ± 0.1	1.44 ± 0.085	1.28 ± 0.023	1.36 ± 0.066	1.42 ± 0.1	1.2 ± 0.19	0.873 ± 0.091	1.18 ± 0.14	1.22 ± 0.016	1.28 ± 0.064	1.26 ± 0.1	1 ± 0.05	0.94 ± 0.096	0.771 ± 0.024	0.658 ± 0.031
ZR751 BREAST	0.886 ± 0.14	0.98 ± 0.062	0.876 ± 0.11	0.935 ± 0.1	0.87 ± 0.07	0.895 ± 0.12	0.928 ± 0.094	0.954 ± 0.093	1.05 ± 0.13	1.01 ± 0.11	1.069 ± 0.0042	1.03 ± 0.14	0.895 ± 0.03	0.834 ± 0.14	0.826 ± 0.058	0.66 ± 0.073
